This passage reports Ki results from BindingDB's records for doi:10.1016/j.bmcl.2006.10.063 (Astrazeneca R&D Boston, 2007).

This test has as its target T1, Amine oxidase [flavin-containing] A (Homo sapiens, UniProt P21397).
T1 sequence (P21397 whole entry): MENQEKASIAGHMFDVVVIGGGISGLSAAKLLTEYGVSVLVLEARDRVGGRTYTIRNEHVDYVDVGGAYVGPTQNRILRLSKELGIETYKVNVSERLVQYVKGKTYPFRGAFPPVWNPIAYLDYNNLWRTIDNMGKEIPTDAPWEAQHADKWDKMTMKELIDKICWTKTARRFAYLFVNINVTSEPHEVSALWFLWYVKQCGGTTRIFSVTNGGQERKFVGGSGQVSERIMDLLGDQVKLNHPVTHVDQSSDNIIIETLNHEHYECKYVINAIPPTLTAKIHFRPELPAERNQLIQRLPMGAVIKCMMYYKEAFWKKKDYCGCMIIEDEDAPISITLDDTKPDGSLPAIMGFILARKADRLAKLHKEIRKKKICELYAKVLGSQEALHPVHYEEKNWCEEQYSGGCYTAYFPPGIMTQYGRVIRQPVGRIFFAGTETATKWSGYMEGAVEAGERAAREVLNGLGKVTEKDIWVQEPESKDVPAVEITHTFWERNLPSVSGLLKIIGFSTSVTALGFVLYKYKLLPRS
As to the kind of experiment: Inhibition human liver MAOA activity.

In turn, `CC(=O)NC[C@H]1CN(c2ccc(-c3cc(C)no3)c(F)c2)C(=O)O1` [N-(((S)-3-(3-fluoro-4-(3-methylisoxazol-5-yl)phenyl)-2-oxooxazolidin-5-yl)methyl)acetamide] yielded an inhibition constant Ki of 950 nM.
With `Cc1cc(-c2ccc(N3C[C@H](CNc4ccon4)OC3=O)cc2F)on1` [(5S)-3-(3-fluoro-4-(3-methylisoxazol-5-yl)phenyl)-5-((isoxazol-3-ylamino)methyl)oxazolidin-2-one] the figure was 420 nM; with `CC(=O)NC[C@H]1CN(c2ccc(N3CCOCC3)c(F)c2)C(=O)O1` [Zyvox], 20000 nM.
Turning to `Cc1cn(C[C@H]2CN(c3ccc(-c4cc(C)no4)c(F)c3)C(=O)O2)nn1` [(5R)-3-(3-fluoro-4-(3-methylisoxazol-5-yl)phenyl)-5-((4-methyl-1H-1,2,3-triazol-1-yl)methyl)oxazolidin-2-one], the Ki turned out to be 22600 nM.
With `Cc1cc(-c2ccc(N3C[C@H](Cn4ccnn4)OC3=O)cc2F)on1` [(5R)-5-((1H-1,2,3-triazol-1-yl)methyl)-3-(3-fluoro-4-(3-methylisoxazol-5-yl)phenyl)oxazolidin-2-one] the figure was 2900 nM.
